From the NIST ThermoML archive (doi:10.1021/acs.jced.6b00985)
Numbers after ± are expanded uncertainties.

Key:
[1] = 293.15 K; 101.33 kPa; Liquid; Vibrating tube method
[2] = refractive index (Na D-line) (dimensionless); details: 293.15 K; 101.33 kPa; Liquid; Standard Abbe refractometry

C1CCCC1 [cyclopentane]
mass density [1]: 745.7 ± 8 kg/m3
refractive index [2]: 1.4066 ± 0.0011

CCC(=O)O [propanoic acid]
mass density [1]: 988 ± 8 kg/m3
refractive index [2]: 1.3809 ± 0.0011

CCCCCCC(C)=O [2-octanone]
mass density [1]: 819.9 ± 8 kg/m3
refractive index [2]: 1.4151 ± 0.0011

OC1CCCC1 [cyclopentanol]
mass density [1]: 948.7 ± 8 kg/m3
refractive index [2]: 1.4531 ± 0.0011

CCCCOC(=O)/C=C\C(=O)OCCCC [dibutyl cis-butendioate]
mass density [1]: 990.1 ± 8.2 kg/m3
refractive index [2]: 1.4452 ± 0.0012
